Laboratory results published in PMC11083565, “Computational Design of Novel Cyclic Peptides Endowed with Autophagy-Inhibiting Activity on Cancer Cell Lines” (International Journal of Molecular Sciences, 2024).
Like-named read-outs stand apart in the source and are kept apart here. Where a SMILES comes first, the peptide text is derived from it. Bridges are numbered along the chain shown (N, C = ends). Where no end group is shown, it is not given here. [ ]: non-standard residue; d: D form. The star is where a group is joined. d(pT) = C[C@H](OP(=O)(O)O)[C@@H](N)C(=O)O; pY = N[C@@H](Cc1ccc(OP(=O)(O)O)cc1)C(=O)O; OBn = c1ccc(CO*)cc1; Bn = c1ccc(C*)cc1

How the values were obtained:
[1] = target: human recombinant His-tagged LC3B protein (Homo sapiens, UniProt Q9GZQ8); format: binding
DU145 cells = format: cell-based, human
[2] = system: LC3-I and LC3-II expression in PC3 cells; experiment: Western blot of LC3-I / LC3-II in PC3 cells; format: cell-based, human
[3] = system: SQSTM1/p62 expression in PC3 cells; format: cell-based, human
A549 cells = settings: 96 h, 5 µM
MCF-7 cells = settings: 96 h, 5 µM
bladder cancer = system: bladder cancer; design: method as in PMID 31574376; settings: combination with autophagy inhibitors; ref [27]; cited from earlier work

Compound: CC(=O)N[C@@H](CC(=O)O)C(=O)N[C@@H](CCC(=O)OCc1ccccc1)C(=O)N[C@@H](C(=O)N[C@@H](CCC(=O)O)C(=O)N[C@H](Cc1ccccc1)C(=O)N[C@@H](C(=O)N[C@@H](Cc1ccc(OP(=O)(O)O)cc1)C(=O)N[C@@H](CC(C)C)C(=O)N[C@@H](CCC(=O)O)C(=O)N[C@@H]1CSSC[C@H](C(N)=O)NC(=O)[C@H](CC(=O)O)NC1=O)[C@H](C)OP(=O)(O)O)[C@H](C)OCc1ccccc1 [Pep6] (Ac-DE(OBn)[dT](Bn)E[dF][d(pT)][pY]LE[dC]D[dC]-NH2; disulfide 10-12)
- Kd compared with LIR2-RavZ [1]: about three times lower
- effect on DU145 cell viability (DU145 cells): ineffective
- LC3-I and LC3-II expression [2]: significantly reduced
- LC3-II/LC3-I ratio [2]: without changing the LC3-II/LC-I ratio
- LC3-II/LC3-I ratio with trehalose [2]: able to decrease the LC3-II/LC3- ratio compared to trehalose alone
- p62 expression [3]: significantly increased
- duration of antitumoral effect (PC3 cells): more stable over time than Pep3
- effect on PC3 cell viability (PC3 cells): reduction in cell viability
- relative efficacy on PC3 cell viability (PC3 cells): greater efficacy of Pep6 compared to LIR2-RavZ at all doses used
- effect on PNT2 cells (PNT2 cells): ineffective
- cell viability A549 (A549 cells): 76.7%
- cell viability MCF-7 (MCF-7 cells): 80.7%

Compound: Cn1cnc(N)c2ncnc1-2 [Pep 3-MA, 3-methyladenine, reference compound]
- LC3-I and LC3-II expression ([2]; PC3, 3-MA 1 mM, compared with Pep3 effect): The same effect on LC3-I and LC3-II expression

Compound: CNC(=O)c1ccc(N2C(=S)N(c3ccc(C#N)c(C(F)(F)F)c3)C(=O)C2(C)C)cc1F [enzalutamide]
- apoptosis of bladder cancer (bladder cancer): effectively induced bladder cancer apoptosis in vitro and in vivo

Compound: DIDEFDLLEGDE [LIR2-RavZ, reference compound]
- cell viability A549 (A549 cells): 81.1%
- cell viability MCF-7 (MCF-7 cells): 85.4%
